# US8618095B2 (Rigel Pharmaceuticals, Inc., priority 2010, dated 2013)
# Structures can show the parent of a compound that is named as a salt.
# System: Human mast cells (CHMC)
# Test: LD Tryptase release assay in CHMC (mast cell activation induced by FcγR cross-linking)
# Assay type: cell-based
# Details: Homo sapiens, Mast cell, anti-IgG stimulation, activity of tryptase released upon degranulation
# Procedure: Compounds were assayed for inhibition of mast cell activation induced by FcγR cross-linking by measuring the activity of tryptase released upon degranulation as follows:
# Human mast cells were cultured and differentiated from […] progenitor cell as described in U.S. Patent Publication No. 2005-234049, incorporated herein by reference. For example, 65 μL of various concentrations of the compound to be assayed were prepared in MT (137 mM NaCl, 2.7 mM KCl, 1.8 mM CaCl2, 1.0 mM MgCl2, 5.6 mM Glucose, 20 mM Hepes (pH 7.4), 0.1% Bovine Serum Albumin, (Sigma A4503)) containing 2% MeOH and 1% DMSO, or control buffer were added to duplicate 96-well V-bottom plates. Pelleted and re-suspended (in warm MT) CHMC cells (65 μL) were added to each 96-well plate, mixed and incubated for 1 hour at 37° C. 25 μl of 6× anti-IgG Rabbit anti-human IgG, Affinity purified (Bethyl Laboratories Cat No. A80-105A3) final concentration 1 μg/mL, was added to the test wells. MT (25 μL) was added to control wells. After a 60-minute incubation at 37° C., cells and cell debris were pelleted by centrifugation at 1000 rpm for 10 min and tryptase and leukotriene C4 levels were measured.
# To measure tryptase levels, 25 μL of supernatant from each well was transferred to a fresh 96-well black bottom plate, to which 100 μL of fresh tryptase substrate solution [(Z-Ala-Lys-Arg-AMC2TFA; Enzyme Systems Products, #AMC-246)] 1:2000 in tryptase assay buffer [0.1 M Hepes (pH 7.5), 10% w/v Glycerol, 10 μM Heparin (Sigma H-4898) 0.01% NaN3] was added. After 30 minute incubation at room temperature, the optical density of the plates is measured at 355 nm/460 nm on a spectrophotometric plate reader. Table 1 provides the IC50 values.
# Compounds of the disclosure were assayed for their ability to inhibit mast cell activation induced by FcγR cross-linking by measuring the activity of tryptase released upon degranulation. The IC50 values for the LD Tryptase assay are presented in Table 2, in which “0” is >100 μM; “A” is 1-100 μM; “B” is 0.5-1 μM; “C” is 0.1-0.5 μM; and “D” is less than 0.1 μM: […]
row,Structure (SMILES),IC50 [nM]
1,"CCN(CC)C1CCN(c2ccc(Nc3ncc(F)c(Nc4ccc5c(n4)NC(=O)C(C)(C)O5)n3)cn2)C1 (stereo not drawn) [Compound 66, N4-(2,2-dimethyl-3,4-dihydro-3-oxo-2H-pyrido[3,2-b][1,4]oxazin-6-yl)-5-fluoro-N2-[6-(3-(diethylamino)pyrrolidin-1-yl)pyridin-3-yl]-2,4-pyrimidinediamine]",500 to 1000
2,"CC1(C)Oc2ccc(Nc3nc(Nc4ccc(C5CCOCC5)cc4)ncc3F)nc2NC1=O [Compound 47, N4-(2,2-dimethyl-3,4-dihydro-3-oxo-2H-pyrido[3,2-b][1,4]oxazin-6-yl)-5-fluoro-N2-[4-tetrahydropyranophenyl]-2,4-pyrimidinediamine]",1000 to 100000
3,"O=C1COc2ccc(Nc3nc(Nc4ccc(N5CCOCC5)nc4)ncc3F)nc2N1 [Compound 5, N4-(3,4-dihydro-3-oxo-2H-pyrido[3,2-b][1,4]oxazin-6-yl)-5-fluoro-N2-[6-morpholinopyridin-3-yl]-2,4-pyrimidinediamine]",100 to 500
4,"CCOCC1COCCN1c1ccc(Nc2ncc(F)c(Nc3ccc4c(n3)NC(=O)C(C)(C)O4)n2)cn1 (stereo not drawn) [Compound 59, N4-(2,2-dimethyl-3,4-dihydro-3-oxo-2H-pyrido[3,2-b][1,4]oxazin-6-yl)-5-fluoro-N2-[6-(3-(ethoxymethyl)morpholino)pyridin-3-yl]-2,4-pyrimidinediamine]",100 to 500
5,"CC1(C)CN(c2ccc(Nc3ncc(F)c(Nc4ccc5c(n4)NC(=O)C4(CCC4)O5)n3)cc2)CCO1 [Compound 124, N2-[4-(2,2-Dimethylmorpholino)phenyl]-5-fluoro-N4-(3′-oxo-3′,4′-dihydrospiro[cyclobutane-1,2′-pyrido[3,2-b][1,4]oxazine]-6-yl)-2,4-pyrimidinediamine]",1000 to 100000
6,"CN(C[C@@H]1CCCO1)c1ccc(Nc2ncc(F)c(Nc3ccc4c(n3)NC(=O)CO4)n2)cn1 [Compound 108, N4-(3,4-dihydro-3-oxo-2H-pyrido[3,2-b][1,4]oxazin-6-yl)-5-fluoro-N2-[6-(((S)-methyl(tetrahydrofuran-2-yl)methyl)amino)pyridin-3-yl]-2,4-pyrimidinediamine]",100 to 500
7,"CCOC1CCN(c2ccc(Nc3ncc(F)c(Nc4ccc5c(n4)NC(=O)C(C)(C)O5)n3)cc2)CC1 [Compound 85, N4-(2,2-dimethyl-3,4-dihydro-3-oxo-2H-pyrido[3,2-b][1,4]oxazin-6-yl)-5-fluoro-N2-[4-(4-ethoxypiperidin-1-yl)phenyl]-2,4-pyrimidinediamine]",100 to 500
8,"CCN(CC)C1CCN(c2ccc(Nc3ncc(F)c(Nc4ccc5c(n4)NC(=O)C(C)(C)O5)n3)cc2)CC1 [Compound 88, N4-(2,2-dimethyl-3,4-dihydro-3-oxo-2H-pyrido[3,2-b][1,4]oxazin-6-yl)-5-fluoro-N2-[4-(4-(diethylamino)piperidin-1-yl)phenyl]-2,4-pyrimidinediamine]",100 to 500

# Now from value to compound:
row,IC50 [nM],Structure (SMILES)
1,100 to 500,"C[C@@H]1CN(c2ccc(Nc3ncc(F)c(Nc4ccc5c(n4)NC(=O)C(C)(C)O5)n3)cn2)C[C@H](C)O1 [Compound 96, rac-Cis-N4-(2,2-dimethyl-3,4-dihydro-3-oxo-2H-pyrido[3,2-b][1,4]oxazin-6-yl)-N2-[6-(2,6-dimethylmorpholino)pyridin-3-yl]-5-fluoro-2,4-pyrimidinediamine]"
2,< 100,"C[C@@H]1COCCN1c1ccc(Nc2ncc(F)c(Nc3ccc4c(n3)NC(=O)CO4)n2)cn1 [Compound 51, N4-(3,4-dihydro-3-oxo-2H-pyrido[3,2-b][1,4]oxazin-6-yl)-5-fluoro-N2-[6-((3R)-3-methylmorpholino)pyridin-3-yl]-2,4-pyrimidinediamine]"
3,< 100,"CC1(C)Oc2ccc(Nc3nc(Nc4ccc5nc(-c6ccncc6)[nH]c5c4)ncc3F)nc2NC1=O [Compound 132, N4-(2,2-dimethyl-3,4-dihydro-3-oxo-2H-pyrido[3,2-b][1,4]oxazin-6-yl)-5-fluoro-N2-[2-(pyridin-4-yl)-1H-benzo[d]imidazol-6-yl]-2,4-pyrimidinediamine]"
4,100 to 500,"CC1(C)CN(c2ccc(Nc3ncc(F)c(Nc4ccc5c(n4)NC(=O)C(C)(C)O5)n3)cn2)CCO1 [Compound 8, N4-(2,2-dimethyl-3,4-dihydro-3-oxo-2H-pyrido[3,2-b][1,4]oxazin-6-yl)-5-fluoro-N2-[6-(2,2-dimethylmorpholino)pyridin-3-yl]-2,4-pyrimidinediamine]"
5,100 to 500,"CC1(C)CN(c2ncc(Nc3ncc(F)c(Nc4ccc5c(n4)NC(=O)CO5)n3)cc2F)CCO1 [Compound 17, N4-(3,4-dihydro-3-oxo-2H-pyrido[3,2-b][1,4]oxazin-6-yl)-5-fluoro-N2-[5-fluoro-6-(2,2-dimethylmorpholino)pyridin-3-yl]-2,4-pyrimidinediamine]"
6,100 to 500,"CCOC[C@@H]1CN(c2ccc(Nc3ncc(F)c(Nc4ccc5c(n4)NC(=O)C(C)(C)O5)n3)cn2)CCO1 [Compound 101, N4-(2,2-dimethyl-3,4-dihydro-3-oxo-2H-pyrido[3,2-b][1,4]oxazin-6-yl)-N2-[6-(((2S)-2-ethoxymethyl)morpholino)pyridin-3-yl]-5-fluoro-2,4-pyrimidinediamine]"
7,100 to 500,"COc1cc(Nc2ncc(F)c(Nc3ccc4c(n3)NC(=O)C(C)(C)O4)n2)cnc1N1CCOCC1 [Compound 21, N4-(2,2-dimethyl-3,4-dihydro-3-oxo-2H-pyrido[3,2-b][1,4]oxazin-6-yl)-5-fluoro-N2-[5-methoxy-6-morpholinopyridin-3-yl]-2,4-pyrimidinediamine]"
8,100 to 500,"C[C@H]1CN(c2ccc(Nc3ncc(F)c(Nc4ccc5c(n4)NC(=O)CO5)n3)cn2)[C@@H](C)CO1 (racemic) [Compound 104, rac-N4-(3,4-dihydro-3-oxo-2H-pyrido[3,2-b][1,4]oxazin-6-yl)-N2-[6-(2,5-dimethylmorpholino)pyridin-3-yl]-5-fluoro-2,4-pyrimidinediamine]"
9,100 to 500,"CC1(C)Oc2ccc(Nc3nc(Nc4ccc(N5CCC(N6CCOCC6)CC5)nc4)ncc3F)nc2NC1=O [Compound 60, N4-(2,2-dimethyl-3,4-dihydro-3-oxo-2H-pyrido[3,2-b][1,4]oxazin-6-yl)-5-fluoro-N2-[6-(4-morpholinopiperidin-1-yl)pyridin-3-yl]-2,4-pyrimidinediamine]"
10,100 to 500,"CC1(C)Oc2ccc(Nc3nc(Nc4ccc(N5CC[C@H](CO)C5)nc4)ncc3F)nc2NC1=O [Compound 71, N4-(2,2-dimethyl-3,4-dihydro-3-oxo-2H-pyrido[3,2-b][1,4]oxazin-6-yl)-5-fluoro-N2-[6-((3S)-3-(hydroxymethyl)pyrrolidin-1-yl)pyridin-3-yl]-2,4-pyrimidinediamine]"
11,< 100,"CC1(C)Oc2ccc(Nc3nc(Nc4ccc(N5C[C@@H]6C[C@H]5CO6)nc4)ncc3F)nc2NC1=O [Compound 92, N4-(2,2-dimethyl-3,4-dihydro-3-oxo-2H-pyrido[3,2-b][1,4]oxazin-6-yl)-5-fluoro-N2-[6-((1S,4S)-5-oxa-2-aza-bicyclo[2.2.1]heptan-2-yl)pyridin-3-yl]-2,4-pyrimidinediamine]"
12,< 100,"C[C@@H]1CN(c2ccc(Nc3ncc(F)c(Nc4ccc5c(n4)NC(=O)CO5)n3)cn2)CCO1 [Compound 6, N4-(3,4-dihydro-3-oxo-2H-pyrido[3,2-b][1,4]oxazin-6-yl)-5-fluoro-N2-[6-((2R)-2-methylmorpholino)pyridin-3-yl]-2,4-pyrimidinediamine]"
13,< 100,"C[C@@H]1CN(c2ccc(Nc3ncc(F)c(Nc4ccc5c(n4)NC(=O)C(C)(C)O5)n3)cc2)CCO1 [Compound 118, N4-(2,2-dimethyl-3,4-dihydro-3-oxo-2H-pyrido[3,2-b][1,4]oxazin-6-yl)-5-fluoro-N2-[4-((2R)-2-methylmorpholino)phenyl]-2,4-pyrimidinediamine]"
14,< 100,"Cc1cc(Nc2ncc(F)c(Nc3ccc4c(n3)NC(=O)C(C)(C)O4)n2)ccc1N1CCOCC1 [Compound 23, N4-(2,2-dimethyl-3,4-dihydro-3-oxo-2H-pyrido[3,2-b][1,4]oxazin-6-yl)-5-fluoro-N2-[3-methyl-4-morpholinophenyl]-2,4-pyrimidinediamine]"

# Same assay, conditions: anti-IgG stimulation, activity of tryptase released upon degranulation
row,Structure (SMILES),IC50 [nM]
1,"CC1(C)CN(c2ccc(Nc3ncc(F)c(Nc4ccc5c(n4)N(COP(=O)(O)O)C(=O)CO5)n3)cc2)CCO1 [Compound 129, N4-(3,4-dihydro-4-[(dihydrogenphosphonoxy)methyl]-3-oxo-2H-pyrido[3,2-b][1,4]oxazin-6-yl)-5-fluoro-N2-[4-(2,2-dimethylmorpholino)phenyl]-2,4-pyrimidinediamine disodium salt]",1000 to 100000
2,"O=C1COc2ccc(Nc3nc(Nc4ccc(N5CCOCC5)cc4)ncc3F)nc2N1COP(=O)(O)O [Compound 114, N4-(3,4-dihydro-4-[(dihydrogenphosphonoxy)methyl]-3-oxo-2H-pyrido[3,2-b][1,4]oxazin-6-yl)-5-fluoro-N2-(4-morpholinophenyl)-2,4-pyrimidinediamine disodium salt]",1000 to 100000
